Where two headings read alike, the source gives them in different places.

Test [1] deals with human MIAPaCa-2 pancreatic carcinoma xenograft. Put plainly: Pancreatic carcinoma xenograft in athymic nude mice. The note with it: MIAPaCa-2 xenograft; for anti-tumor effect: nude mice, single agent. The class given is in vivo, mouse. The procedure: The objective of the third study was to evaluate antitumor activities of novel multiple-kinase inhibitor NTW-3475 in human MIAPaCa-2 pancreatic carcinoma xenograft in athymic nude-Faxn1 mice.
Four animals were randomly assigned to study groups. Each animal was weighed, and then injected subcutaneously in the left and right flank area with 0.1 ml of 5.0×10^7 MIAPaCa-2 cells per mL.
Each test or control animal was on a 5-day on, two-day off for two cycles treatment schedule with negative control vehicle, positive control Abraxane at 20 mg/kg or 25, 50 mg/kg of NTW-3475. Tumor growth was measured with a digital hand held caliper twice weekly (once tumor emerges) prior to the first dosing and then two to three times weekly until euthanized.
The objective of the third study was to evaluate antitumor activities of novel multiple-kinase inhibitor Compound 10, 11, 12, 53, 68, 82, 83, 88, and 90 in human MIAPaCa-2 pancreatic carcinoma xenograft in athymic nude-Faxn1 mice.
Each test or control animal was on a 5-day on, two-day off for three cycles treatment schedule with negative control vehicle or 40 mg/kg of Compound 10, 11, 12, 53, 68, 82, 83, 88 and 90. Tumor growth was measured with a digital hand held caliper twice weekly (once tumor emerges) prior to the first dosing and then two to three times weekly until euthanized.

The target of test [2] is Abl(h) (Homo sapiens, UniProt P00519). Put plainly: KinaseProfiler kinase assay. The class given is biochemical.
Abl(h), sequence (P00519 whole entry): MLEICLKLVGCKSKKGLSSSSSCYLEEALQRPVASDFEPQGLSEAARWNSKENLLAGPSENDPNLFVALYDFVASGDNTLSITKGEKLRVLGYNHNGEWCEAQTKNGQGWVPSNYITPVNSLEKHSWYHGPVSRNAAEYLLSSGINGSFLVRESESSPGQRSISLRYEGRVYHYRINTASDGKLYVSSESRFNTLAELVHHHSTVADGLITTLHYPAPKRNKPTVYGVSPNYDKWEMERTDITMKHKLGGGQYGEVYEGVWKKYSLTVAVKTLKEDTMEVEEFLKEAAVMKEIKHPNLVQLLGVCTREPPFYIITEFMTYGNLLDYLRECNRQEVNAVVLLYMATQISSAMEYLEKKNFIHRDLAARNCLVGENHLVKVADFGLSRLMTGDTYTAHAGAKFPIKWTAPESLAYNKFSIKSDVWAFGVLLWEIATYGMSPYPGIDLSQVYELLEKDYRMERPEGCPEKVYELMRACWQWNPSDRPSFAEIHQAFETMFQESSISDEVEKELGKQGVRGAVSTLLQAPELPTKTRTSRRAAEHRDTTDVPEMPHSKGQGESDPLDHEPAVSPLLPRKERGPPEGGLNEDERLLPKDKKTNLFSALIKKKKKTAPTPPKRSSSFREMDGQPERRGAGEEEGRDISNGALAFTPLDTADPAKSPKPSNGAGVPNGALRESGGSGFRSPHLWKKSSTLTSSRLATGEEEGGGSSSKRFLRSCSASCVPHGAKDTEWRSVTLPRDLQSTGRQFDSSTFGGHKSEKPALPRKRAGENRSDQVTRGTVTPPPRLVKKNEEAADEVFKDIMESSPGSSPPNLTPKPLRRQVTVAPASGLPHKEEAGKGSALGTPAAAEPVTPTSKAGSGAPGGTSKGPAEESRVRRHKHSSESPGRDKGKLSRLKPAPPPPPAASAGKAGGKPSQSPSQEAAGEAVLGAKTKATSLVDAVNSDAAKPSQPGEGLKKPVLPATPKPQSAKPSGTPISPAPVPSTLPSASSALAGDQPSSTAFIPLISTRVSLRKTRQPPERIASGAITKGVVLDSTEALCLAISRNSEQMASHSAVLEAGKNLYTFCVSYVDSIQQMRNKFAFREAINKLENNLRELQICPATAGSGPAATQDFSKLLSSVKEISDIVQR
For test [3], the target named is KDR(h) (Homo sapiens, UniProt P35968). Description: KinaseProfiler kinase assay. The class given is biochemical.
KDR(h), sequence (P35968 20-1356): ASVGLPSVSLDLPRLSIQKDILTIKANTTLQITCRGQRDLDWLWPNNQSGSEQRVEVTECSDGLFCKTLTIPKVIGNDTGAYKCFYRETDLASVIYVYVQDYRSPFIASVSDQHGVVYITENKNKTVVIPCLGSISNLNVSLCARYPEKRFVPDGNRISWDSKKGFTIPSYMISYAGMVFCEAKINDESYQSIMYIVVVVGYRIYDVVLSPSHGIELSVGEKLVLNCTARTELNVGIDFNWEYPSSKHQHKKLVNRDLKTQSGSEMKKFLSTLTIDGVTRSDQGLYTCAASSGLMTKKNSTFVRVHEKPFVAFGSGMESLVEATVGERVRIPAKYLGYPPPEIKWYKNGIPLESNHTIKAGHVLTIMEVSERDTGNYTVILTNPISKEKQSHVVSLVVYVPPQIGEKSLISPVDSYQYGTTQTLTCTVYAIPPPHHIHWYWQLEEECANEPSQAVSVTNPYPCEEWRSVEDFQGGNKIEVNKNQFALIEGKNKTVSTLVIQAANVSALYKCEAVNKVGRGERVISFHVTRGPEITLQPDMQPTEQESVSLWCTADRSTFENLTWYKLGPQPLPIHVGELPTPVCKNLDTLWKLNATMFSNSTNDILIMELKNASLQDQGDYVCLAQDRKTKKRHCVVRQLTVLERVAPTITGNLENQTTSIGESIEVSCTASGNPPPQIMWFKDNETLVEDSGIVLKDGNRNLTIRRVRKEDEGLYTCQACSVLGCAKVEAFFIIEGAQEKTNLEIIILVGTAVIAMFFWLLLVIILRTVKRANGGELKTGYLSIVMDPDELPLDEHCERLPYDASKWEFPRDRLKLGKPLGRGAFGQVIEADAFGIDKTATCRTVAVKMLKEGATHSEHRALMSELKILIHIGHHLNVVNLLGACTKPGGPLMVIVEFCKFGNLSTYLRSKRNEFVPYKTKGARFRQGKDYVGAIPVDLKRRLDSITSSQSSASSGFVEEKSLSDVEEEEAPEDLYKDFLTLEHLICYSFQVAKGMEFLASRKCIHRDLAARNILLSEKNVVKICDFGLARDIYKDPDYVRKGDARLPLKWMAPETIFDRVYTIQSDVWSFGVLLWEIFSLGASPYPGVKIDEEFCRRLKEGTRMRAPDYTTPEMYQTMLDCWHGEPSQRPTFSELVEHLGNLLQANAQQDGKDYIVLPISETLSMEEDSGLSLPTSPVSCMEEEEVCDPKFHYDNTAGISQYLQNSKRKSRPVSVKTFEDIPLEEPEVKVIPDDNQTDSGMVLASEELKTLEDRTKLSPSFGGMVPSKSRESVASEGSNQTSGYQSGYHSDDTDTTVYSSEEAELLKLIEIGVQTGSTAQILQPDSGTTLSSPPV
The target in test [4] is FGFR1(h) (Homo sapiens, UniProt P11362). Description: KinaseProfiler kinase assay. The class given is biochemical. The method in brief: (§1)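 Kinase activity is followed by incorporation of 33P from [γ-33P]ATP in 8 mM MOPS pH 7.0 with 10 mM Mg acetate and 0.2 mM EDTA over 40 min at room temperature. Inhibition is scaled between no-kinase and phosphopeptide control wells.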
FGFR1(h), sequence (P11362 22-822): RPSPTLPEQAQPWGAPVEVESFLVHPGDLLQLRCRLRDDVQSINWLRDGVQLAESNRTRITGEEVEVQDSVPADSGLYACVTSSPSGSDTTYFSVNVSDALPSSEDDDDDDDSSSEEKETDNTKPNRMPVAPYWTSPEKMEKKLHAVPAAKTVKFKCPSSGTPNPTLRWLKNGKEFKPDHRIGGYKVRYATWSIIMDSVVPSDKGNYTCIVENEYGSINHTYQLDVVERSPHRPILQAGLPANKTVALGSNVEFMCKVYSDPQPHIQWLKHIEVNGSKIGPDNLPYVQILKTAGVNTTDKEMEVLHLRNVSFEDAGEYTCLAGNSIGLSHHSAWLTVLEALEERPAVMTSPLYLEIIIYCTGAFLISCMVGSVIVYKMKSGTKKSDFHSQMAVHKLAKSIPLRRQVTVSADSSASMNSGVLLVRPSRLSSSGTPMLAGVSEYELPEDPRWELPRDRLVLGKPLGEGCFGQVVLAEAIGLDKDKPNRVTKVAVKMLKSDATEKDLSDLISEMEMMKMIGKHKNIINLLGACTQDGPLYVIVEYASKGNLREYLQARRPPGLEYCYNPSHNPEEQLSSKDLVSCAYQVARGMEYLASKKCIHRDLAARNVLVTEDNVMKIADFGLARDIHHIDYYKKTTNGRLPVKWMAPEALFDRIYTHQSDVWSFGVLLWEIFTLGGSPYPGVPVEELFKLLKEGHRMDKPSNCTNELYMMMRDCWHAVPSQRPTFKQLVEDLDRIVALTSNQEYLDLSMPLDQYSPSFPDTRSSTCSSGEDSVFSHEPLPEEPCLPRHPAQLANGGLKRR
Test [5] deals with Ret(h) (Homo sapiens, UniProt P07949). Description: KinaseProfiler kinase assay. The class given is biochemical. The method, boiled down:
as §1

Test [6] deals with T1, Flt3(h) (Homo sapiens, UniProt P36888).
T1 sequence (P36888 27-993): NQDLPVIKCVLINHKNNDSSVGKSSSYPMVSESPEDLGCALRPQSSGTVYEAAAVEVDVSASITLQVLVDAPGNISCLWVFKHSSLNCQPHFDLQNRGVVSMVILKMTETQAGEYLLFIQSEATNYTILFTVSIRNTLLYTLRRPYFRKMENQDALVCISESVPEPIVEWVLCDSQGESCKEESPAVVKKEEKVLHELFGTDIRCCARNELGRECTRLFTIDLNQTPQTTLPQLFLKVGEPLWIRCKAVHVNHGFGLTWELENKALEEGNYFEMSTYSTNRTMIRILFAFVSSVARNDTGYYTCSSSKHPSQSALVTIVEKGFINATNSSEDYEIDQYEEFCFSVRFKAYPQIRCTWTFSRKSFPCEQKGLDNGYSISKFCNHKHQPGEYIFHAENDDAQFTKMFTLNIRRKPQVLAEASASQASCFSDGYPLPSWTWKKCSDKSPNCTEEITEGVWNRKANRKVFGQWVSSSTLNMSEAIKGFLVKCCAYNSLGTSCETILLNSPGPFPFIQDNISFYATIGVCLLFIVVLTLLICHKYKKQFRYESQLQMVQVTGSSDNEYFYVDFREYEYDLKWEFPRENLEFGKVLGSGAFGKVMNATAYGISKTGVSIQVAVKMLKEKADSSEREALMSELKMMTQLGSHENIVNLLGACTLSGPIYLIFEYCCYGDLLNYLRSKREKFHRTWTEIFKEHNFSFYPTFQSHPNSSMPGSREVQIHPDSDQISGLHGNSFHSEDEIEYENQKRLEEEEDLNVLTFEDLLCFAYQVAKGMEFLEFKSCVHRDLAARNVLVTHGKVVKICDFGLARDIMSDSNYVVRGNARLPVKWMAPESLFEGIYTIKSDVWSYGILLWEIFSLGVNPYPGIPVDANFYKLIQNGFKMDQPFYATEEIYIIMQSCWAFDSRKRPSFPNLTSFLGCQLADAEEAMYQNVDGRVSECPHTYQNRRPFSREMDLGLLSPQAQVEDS
Put plainly: KinaseProfiler kinase assay. The class given is biochemical. The method in brief: as §1

Test [7] has as its target cSRC(h) (Homo sapiens, UniProt P12931). Description: KinaseProfiler kinase assay. The class given is biochemical. The method in brief:
as §1

cSRC(h), sequence (P12931 whole entry): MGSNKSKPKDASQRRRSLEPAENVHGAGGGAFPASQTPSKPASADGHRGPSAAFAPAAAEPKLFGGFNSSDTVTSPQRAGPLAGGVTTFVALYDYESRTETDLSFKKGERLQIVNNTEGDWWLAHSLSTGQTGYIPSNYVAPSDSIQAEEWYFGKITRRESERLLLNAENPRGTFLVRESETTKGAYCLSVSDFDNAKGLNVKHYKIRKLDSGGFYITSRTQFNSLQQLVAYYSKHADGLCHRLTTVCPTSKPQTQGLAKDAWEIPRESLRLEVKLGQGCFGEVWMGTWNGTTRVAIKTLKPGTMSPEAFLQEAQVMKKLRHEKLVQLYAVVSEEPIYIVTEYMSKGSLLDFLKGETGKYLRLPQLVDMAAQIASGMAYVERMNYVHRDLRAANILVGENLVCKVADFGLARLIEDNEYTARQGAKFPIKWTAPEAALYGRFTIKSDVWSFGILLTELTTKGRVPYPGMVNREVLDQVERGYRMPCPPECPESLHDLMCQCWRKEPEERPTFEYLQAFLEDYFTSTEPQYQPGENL
Ret(h), sequence (P07949 29-1114): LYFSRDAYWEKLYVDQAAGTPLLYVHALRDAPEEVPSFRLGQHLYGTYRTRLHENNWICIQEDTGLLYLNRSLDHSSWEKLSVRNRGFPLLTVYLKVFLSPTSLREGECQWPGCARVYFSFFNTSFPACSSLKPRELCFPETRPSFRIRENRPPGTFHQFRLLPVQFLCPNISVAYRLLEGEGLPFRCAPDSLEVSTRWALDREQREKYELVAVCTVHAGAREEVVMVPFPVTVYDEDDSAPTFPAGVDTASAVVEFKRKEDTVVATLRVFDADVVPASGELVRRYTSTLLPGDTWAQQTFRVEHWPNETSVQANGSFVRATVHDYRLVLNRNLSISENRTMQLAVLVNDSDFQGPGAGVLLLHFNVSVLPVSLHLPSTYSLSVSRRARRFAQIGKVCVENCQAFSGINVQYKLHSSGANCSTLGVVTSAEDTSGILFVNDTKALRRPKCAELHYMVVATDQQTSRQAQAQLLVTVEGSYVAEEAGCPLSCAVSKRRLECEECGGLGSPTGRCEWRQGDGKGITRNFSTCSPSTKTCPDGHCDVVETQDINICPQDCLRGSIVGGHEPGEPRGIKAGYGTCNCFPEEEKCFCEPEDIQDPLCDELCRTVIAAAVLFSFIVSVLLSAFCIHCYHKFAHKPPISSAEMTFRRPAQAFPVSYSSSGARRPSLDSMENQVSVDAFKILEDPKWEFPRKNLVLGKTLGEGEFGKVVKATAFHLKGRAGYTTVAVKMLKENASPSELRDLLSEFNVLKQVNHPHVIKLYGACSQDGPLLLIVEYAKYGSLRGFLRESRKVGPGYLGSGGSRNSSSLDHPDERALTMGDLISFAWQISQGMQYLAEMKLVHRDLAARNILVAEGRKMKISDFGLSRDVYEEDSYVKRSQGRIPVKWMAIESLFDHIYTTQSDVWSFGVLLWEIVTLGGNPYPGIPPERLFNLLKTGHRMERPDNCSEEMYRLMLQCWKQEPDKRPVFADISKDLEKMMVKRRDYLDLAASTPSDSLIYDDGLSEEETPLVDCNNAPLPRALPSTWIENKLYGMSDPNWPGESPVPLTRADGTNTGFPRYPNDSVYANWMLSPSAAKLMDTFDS

As to `Cc1cc2c(F)c(Oc3nc(Nc4cc(C5CC5)[nH]n4)cc(N4CCN(C)CC4)n3)ccc2[nH]1` [Compound 10], the anti-tumor effect entry in test [1] was “strong anti-tumor effect”. Moreover, the inhibition at 0.1 µM in test [2] stood at 110%; in test [3], 93%; in test [4], 100%; in test [5], 102%; in test [6], 101%; in test [7], 103%. For the same molecule, the inhibition at 1 µM in test [2] was determined as 112%; in test [3], 95%; in test [5] it was 101%; in test [6] it was 100%; in test [7], 100%. The concentration for half-maximal inhibition (IC50) in test [2] (read-out: IC50 (nM) Abl (h)) was 0.5 nM; in test [4] (read-out: IC50 (nM) FGFR1 (h)) it was 1 nM; in test [6] (read-out: IC50 (nM) Flt3 (h)), 11 nM; in test [7] (read-out: IC50 (nM) cSrc (h)), 3 nM.

As for `Cc1cc2c(F)c(Oc3nc(Nc4cc(C5CC5)[nH]n4)cc(N4CCNCC4)n3)ccc2[nH]1` [Compound 11, N-(5-cyclopropyl-1H-pyrazol-3-yl)-2-((4-fluoro-2-methyl-1H-indol-5-yl)oxy)-6-(piperazin-1-yl)pyrimidin-4-amine], in test [1], the anti-tumor effect result is “strong anti-tumor effect”. Besides, the inhibition at 0.1 µM in test [2] came out at 108%; in test [3] it was 92%; in test [4], 100%; in test [5], 100%; in test [6], 98%; in test [7], 98%. In addition, the inhibition at 1 µM is 111% in test [2]; 96% in test [3]; 101% in test [5]; 100% in test [6]; 101% in test [7]. The IC50 in test [2] (read-out: IC50 (nM) Abl (h)) came to 0.5 nM; in test [3] (read-out: IC50 (nM) KDR (h)), 12 nM; in test [4] (read-out: IC50 (nM) FGFR1 (h)), 0.5 nM; in test [6] (read-out: IC50 (nM) Flt3 (h)) it was 12 nM; in test [7] (read-out: IC50 (nM) cSrc (h)), 3 nM.

`C/C=C/c1cc(Nc2cc(N3CCN(C)CC3)nc(Oc3ccc4[nH]c(C)cc4c3F)n2)n[nH]1` [Compound 53]: the inhibition at 1 µM was 109% in test [2]; 95% in test [3]; 98% in test [5]; 99% in test [6]; 98% in test [7]. Besides, the IC50 in test [2] (Abl, read-out: IC50) worked out at 0.6 nM; in test [3] (VEGFR2, read-out: IC50) it was 16 nM; in test [4] (FGFR1, read-out: IC50), 0.5 nM; in test [5] (Ret, read-out: IC50), 2 nM; in test [6] (Flt3, read-out: IC50), 13 nM; in test [7] (cSrc, read-out: IC50) it was 2 nM.

Turning to `C/C=C/c1cc(Nc2cc(N3CCNCC3)nc(Oc3ccc4[nH]c(C)cc4c3F)n2)n[nH]1` [Compound 68], in test [1], the “anti-tumor effect in combination with Abraxane” value (“anti-tumor effect in combination” below) is given as “significant antitumor efficacy”. For the same molecule, the anti-tumor effect entry in test [1] is “strong anti-tumor effect”. Moreover, the inhibition at 1 µM is 107% in test [2]; 92% in test [3]; 99% in test [5]; 100% in test [6]; 96% in test [7]. Besides, the IC50 in test [2] (read-out: IC50 (nM) Abl (h)) was found to be 0.3 nM; in test [3] (read-out: IC50 (nM) KDR (h)) it was 12 nM; in test [4] (read-out: IC50 (nM) FGFR1 (h)) it was 0.6 nM; in test [6] (read-out: IC50 (nM) Flt3 (h)) it was 4 nM; in test [7] (read-out: IC50 (nM) cSrc (h)), 2 nM.

In the case of `Cc1cc2c(F)c(Oc3nc(Nc4cc(C5CC5)[nH]n4)cc(N4CCNCC4)n3)cc(F)c2[nH]1` [Compound 82], the “anti-tumor effect in combination” value in test [1] was “significant antitumor efficacy”. Also, in test [1], the anti-tumor effect entry is listed as “strong anti-tumor effect”. Moreover, the inhibition at 1 µM in test [2] stood at 106%; in test [3], 95%; in test [5] it was 100%; in test [6], 100%; in test [7], 100%. Further, the IC50 in test [2] (read-out: IC50 (nM) Abl (h)) turned out to be 0.2 nM; in test [3] (read-out: IC50 (nM) KDR (h)), 11 nM; in test [4] (read-out: IC50 (nM) FGFR1 (h)), 0.6 nM; in test [5] (read-out: IC50 (nM) Ret (h)) it was 1 nM; in test [6] (read-out: IC50 (nM) Flt3 (h)), 6 nM; in test [7] (read-out: IC50 (nM) cSrc (h)), 2 nM.

For the molecule `C/C=C/c1cc(Nc2cc(N3CCN(CCO)CC3)nc(Oc3cc(F)c4[nH]c(C)cc4c3F)n2)n[nH]1` [Compound 88], in test [1], the anti-tumor effect entry is listed as “strong anti-tumor effect”. In addition, the inhibition at 1 µM in test [2] was 113%; in test [3], 96%; in test [5], 99%; in test [6] it was 100%; in test [7], 100%. Further, the concentration for half-maximal inhibition (IC50) in test [2] (read-out: IC50 (nM) Abl (h)) worked out at 1 nM; in test [3] (read-out: IC50 (nM) KDR (h)) it was 44 nM; in test [4] (read-out: IC50 (nM) FGFR1 (h)) it was 0.2 nM; in test [6] (read-out: IC50 (nM) Flt3 (h)), 8 nM; in test [7] (read-out: IC50 (nM) cSrc (h)) it was 4 nM.

As to `C/C=C/c1cc(Nc2cc(N3CCN(C)CC3)nc(Oc3cc(F)c4[nH]c(C)cc4c3F)n2)n[nH]1` [NTW-3456], in test [1], the “anti-tumor effect in combination” value is on record as “significant anti-tumor activity” and the anti-tumor effect entry was “some anti-tumor activity”.
